Active and inactive are the calls of the source. The calls are words filed in the database; no cut-off is given here.
Tests used:
[1] = (§1) Inhibition of D-DWEYS binding to mouse anti-dsDNA monoclonal antibody R4A pretreated for 1 hr followed by D-DWEYS peptide addition measured after 1 hr by ELISA
Mus musculus [2] = species: Mus musculus; assay: as §1
Mus musculus [3] = species: Mus musculus; assay: Inhibition of mouse glomerular binding to mouse anti-dsDNA monoclonal antibody R4A at 50 uM pretreated for 1 hr followed by glomerular addition by microscopic analysis

Row | Compound | IC50 [1] | IC50 ([1]; read-out: IC50) | further results
1 | O=C(O)c1ccc2ccccc2n1 [QUINALDIC ACID] | Not Active | – | –
2 | CC(C)(C)NC[C@@H]1CC2CCCCC2CN1C[C@@H](O)[C@H](Cc1ccccc1)NC[C@H](CCN)NC(=O)c1ccccn1 (stereo partly drawn) | – | 12.5 µM | –
3 | CC(C)(C)NC[C@@H]1CC2CCCCC2CN1C[C@@H](O)[C@H](Cc1ccccc1)NC[C@H](CCN)NCC1Nc2ccccc2CC1O (stereo partly drawn) | – | 4.5 µM | –
4 | CC(C)(C)NC[C@@H]1CC2CCCCC2CN1C[C@@H](O)[C@H](Cc1ccccc1)NC[C@H](CCN)NC(=O)c1ccc2ccccc2n1 (stereo partly drawn) | – | 7.3 µM | –
5 | NCC[C@@H](CN[C@@H](Cc1ccccc1)[C@H](O)CN1CCOCC1)NC(=O)c1ccc2ccccc2c1 | Not Active | – | –
6 | NCC[C@@H](CN[C@H](CO)Cc1ccccc1)NCC1CCc2ccccc2N1 (stereo partly drawn) | Not Active | – | –
7 | CC(C)(C)NC[C@@H]1CC2CCCCC2CN1C[C@@H](O)[C@@H](N)Cc1ccccc1 (stereo partly drawn) | – | – | inhibition (Mus musculus [2]; concentration not given here): < 20%
8 | OCC1Nc2ccccc2CC1O (stereo not drawn) | Not Active | – | –
9 | CC(C)(C)NC(=O)[C@@H]1CC2CCCCC2CN1C[C@@H](O)[C@H](Cc1ccccc1)NC(=O)c1ccc2ccccc2c1 (stereo partly drawn) | – | > 100 µM | –
10 | CC(C)(C)NC[C@@H]1CC2CCCCC2CN1 (stereo partly drawn) | Not Active | – | –

Now from value to molecule, other results behind:

Row | IC50 [1] | IC50 ([1]; read-out: IC50) | Compound | further results
11 | – | 5.8 µM | CC(C)(C)NC[C@@H]1CC2CCCCC2CN1C[C@@H](O)[C@H](Cc1ccccc1)NC(=O)c1ccc2ccccc2n1 (stereo partly drawn) | inhibition (Mus musculus [2]): Dose-dependent effect; inhibition (Mus musculus [3]): Active
12 | – | 6.8 µM | CC(C)(C)NC[C@@H]1CC2CCCCC2CN1C[C@@H](O)[C@H](Cc1ccccc1)NC(=O)c1ccc2ccccc2c1 (stereo partly drawn) | –
13 | – | 10 µM | CC(C)(C)NC[C@@H]1CC2CCCCC2CN1C[C@@H](O)[C@H](Cc1ccccc1)NC[C@H](CCN)NC(=O)C1CCCCN1 (stereo partly drawn) | –
14 | Not Active | – | CC(C)(C)NC(=O)[C@@H]1CC2CCCCC2CN1C[C@@H](O)[C@H](Cc1ccccc1)NC(=O)[C@H](CCN)NCc1ccc2ccccc2n1 (stereo partly drawn) | –
15 | – | 6.9 µM | CC(C)(C)NC[C@@H]1CC2CCCCC2CN1C[C@@H](O)[C@H](Cc1ccccc1)NC[C@H](CCN)NCC1CCc2ccccc2N1 (stereo partly drawn) | –
16 | – | 3.7 µM | CC(C)(C)NC[C@@H]1CC2CCCCC2CN1C[C@@H](O)[C@H](Cc1ccccc1)NC[C@H](CCN)NC(=O)c1ccc2ccccc2c1 (stereo partly drawn) | inhibition (Mus musculus [2]): Dose-dependent effect; inhibition (Mus musculus [3]): Active
17 | – | 19.7 µM | CC(C)(C)NC[C@@H]1CC2CCCCC2CN1C[C@@H](O)[C@H](Cc1ccccc1)NC(=O)[C@H](CCN)NC(=O)c1nc2ccccc2cc1O (stereo partly drawn) | –
18 | – | 27.3 µM | CC(C)(C)NC[C@@H]1CC2CCCCC2CN1C[C@@H](O)[C@H](Cc1ccccc1)NC[C@@H](N)CCN (stereo partly drawn) | –
19 | – | 88.7 µM | CC(C)(C)NC(=O)[C@@H]1CC2CCCCC2CN1C[C@@H](O)[C@H](Cc1ccccc1)NC(=O)c1ccc2ccccc2n1 (stereo partly drawn) | –

— ChEMBL document CHEMBL4043233, “A structural investigation of FISLE-412, a peptidomimetic compound derived from saquinavir that targets lupus autoantibodies” (Bioorg Med Chem Lett, 2017)
